# From ChEMBL document CHEMBL3739306, “Enantiomeric resolution of [(2,2-diphenyl-1,3-dioxolan-4-yl)methyl](2-phenoxyethyl)amine, a potent 1and 5-HT1Areceptor ligand: an in vitro and computational study” (Medchemcomm, 2015)
# How the values were obtained:
# [1] = target: T1, Alpha-1B adrenergic receptor (Rattus norvegicus) (UniProt P15823); test: Antagonist activity at alpha1B adrenoceptor in Wistar rat spleen assessed as phenylephrine-induced contractions after 30 mins
# T1 sequence (whole entry): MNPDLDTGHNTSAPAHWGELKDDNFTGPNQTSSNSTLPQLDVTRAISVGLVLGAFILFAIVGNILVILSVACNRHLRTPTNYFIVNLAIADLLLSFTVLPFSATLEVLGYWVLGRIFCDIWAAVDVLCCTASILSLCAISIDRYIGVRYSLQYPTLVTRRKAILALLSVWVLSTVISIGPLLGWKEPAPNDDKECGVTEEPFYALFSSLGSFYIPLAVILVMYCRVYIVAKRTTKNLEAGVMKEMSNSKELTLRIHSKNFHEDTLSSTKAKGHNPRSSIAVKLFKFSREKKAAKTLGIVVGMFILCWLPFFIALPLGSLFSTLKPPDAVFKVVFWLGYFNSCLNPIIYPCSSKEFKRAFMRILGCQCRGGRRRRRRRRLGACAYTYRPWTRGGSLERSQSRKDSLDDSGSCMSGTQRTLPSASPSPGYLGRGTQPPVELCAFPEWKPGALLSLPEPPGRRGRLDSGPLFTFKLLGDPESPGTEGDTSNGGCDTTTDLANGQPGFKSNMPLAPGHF
# [2] = target: T2, 5-hydroxytryptamine receptor 1A (Homo sapiens) (UniProt P08908); test: Agonist activity at human recombinant 5-HT1A receptor expressed in HeLa cell membrane after 20 mins by [35S]GTPgammaS binding assay; type: functional, cell membranes
# T2 sequence (whole entry): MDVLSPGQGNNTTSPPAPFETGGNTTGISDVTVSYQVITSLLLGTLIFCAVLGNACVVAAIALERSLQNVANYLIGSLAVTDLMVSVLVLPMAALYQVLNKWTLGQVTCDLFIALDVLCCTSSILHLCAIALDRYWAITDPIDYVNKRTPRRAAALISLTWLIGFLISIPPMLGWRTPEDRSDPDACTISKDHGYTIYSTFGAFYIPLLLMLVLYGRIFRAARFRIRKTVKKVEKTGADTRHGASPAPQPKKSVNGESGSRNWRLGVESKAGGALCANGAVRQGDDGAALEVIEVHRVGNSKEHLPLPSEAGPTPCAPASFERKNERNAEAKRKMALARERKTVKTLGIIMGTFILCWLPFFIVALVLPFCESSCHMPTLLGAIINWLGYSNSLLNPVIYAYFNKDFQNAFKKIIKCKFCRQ
# [3] = system: CHO; test: Selectivity index, ratio of pKi for human recombinant alpha1D adrenoceptor to pKi for human recombinant alpha1A adrenoceptor expressed in CHO cell membrane; type: cell-based
# [4] = species: Rattus norvegicus; test: Selectivity ratio of pA2 for alpha1D adrenoceptor in Wistar rat thoracic aorta to pKb for alpha1B adrenoceptor in Wistar rat spleen
# [5] = system: CHO; test: Selectivity index, ratio of pKi for human recombinant alpha1D adrenoceptor to pKi for human recombinant alpha1B adrenoceptor expressed in CHO cell membrane; type: cell-based
# [6] = species: Rattus norvegicus; test: Selectivity ratio of pKb for alpha1A adrenoceptor in Wistar rat vas deferans to pKb for alpha1B adrenoceptor in Wistar rat spleen
# [7] = target: T3, Alpha-1D adrenergic receptor (Homo sapiens, UniProt P25100); test: Displacement of [3H]prazosin from human recombinant alpha1D adrenoceptor expressed in CHO cell membrane after 30 mins by liquid scintillation counting; type: cell membranes
# T3 sequence (P25100 whole entry): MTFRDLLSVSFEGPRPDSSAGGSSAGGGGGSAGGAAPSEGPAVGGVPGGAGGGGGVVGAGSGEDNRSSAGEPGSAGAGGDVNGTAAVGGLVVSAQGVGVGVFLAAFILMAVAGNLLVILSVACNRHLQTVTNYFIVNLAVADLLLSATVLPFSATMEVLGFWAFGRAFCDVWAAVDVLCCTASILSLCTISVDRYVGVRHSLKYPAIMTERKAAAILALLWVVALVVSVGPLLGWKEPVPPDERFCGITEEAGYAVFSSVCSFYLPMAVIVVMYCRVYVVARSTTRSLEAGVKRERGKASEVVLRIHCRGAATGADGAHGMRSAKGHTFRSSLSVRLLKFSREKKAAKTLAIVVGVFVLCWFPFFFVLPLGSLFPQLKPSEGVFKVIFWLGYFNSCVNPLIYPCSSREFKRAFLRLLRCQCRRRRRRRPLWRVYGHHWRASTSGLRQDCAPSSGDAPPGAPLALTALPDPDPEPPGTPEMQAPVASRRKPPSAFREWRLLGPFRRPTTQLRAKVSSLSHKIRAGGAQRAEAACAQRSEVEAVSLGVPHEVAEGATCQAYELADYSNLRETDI
# [8] = target: T4, Alpha-1D adrenergic receptor (Rattus norvegicus, UniProt P23944); test: Antagonist activity at alpha1D adrenoceptor in Wistar rat thoracic aorta assessed as noradrenaline-induced contractions after 30 mins; type: tissue-based; conditions: read-out: pA2 (converted)
# T4 sequence (P23944 whole entry): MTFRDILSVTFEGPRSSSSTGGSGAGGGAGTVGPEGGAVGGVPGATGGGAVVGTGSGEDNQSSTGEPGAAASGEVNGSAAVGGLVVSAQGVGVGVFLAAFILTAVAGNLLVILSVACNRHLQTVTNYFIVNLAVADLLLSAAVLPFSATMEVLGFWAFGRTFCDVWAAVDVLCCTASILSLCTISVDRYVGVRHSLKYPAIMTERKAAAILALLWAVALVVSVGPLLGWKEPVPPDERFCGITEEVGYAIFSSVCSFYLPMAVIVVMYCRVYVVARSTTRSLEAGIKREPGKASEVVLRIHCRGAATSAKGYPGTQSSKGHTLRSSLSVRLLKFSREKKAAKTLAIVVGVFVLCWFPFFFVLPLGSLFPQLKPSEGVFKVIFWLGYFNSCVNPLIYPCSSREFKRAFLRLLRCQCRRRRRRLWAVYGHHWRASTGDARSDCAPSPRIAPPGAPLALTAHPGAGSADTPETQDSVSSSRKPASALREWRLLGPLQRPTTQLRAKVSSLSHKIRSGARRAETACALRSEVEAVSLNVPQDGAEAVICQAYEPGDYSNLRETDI
# [9] = target: T5, Alpha-1A adrenergic receptor (Rattus norvegicus) (UniProt P43140); test: Antagonist activity at alpha1A adrenoceptor in Wistar rat vas deferans assessed as noradrenaline-induced contractions after 30 mins
# T5 sequence (whole entry): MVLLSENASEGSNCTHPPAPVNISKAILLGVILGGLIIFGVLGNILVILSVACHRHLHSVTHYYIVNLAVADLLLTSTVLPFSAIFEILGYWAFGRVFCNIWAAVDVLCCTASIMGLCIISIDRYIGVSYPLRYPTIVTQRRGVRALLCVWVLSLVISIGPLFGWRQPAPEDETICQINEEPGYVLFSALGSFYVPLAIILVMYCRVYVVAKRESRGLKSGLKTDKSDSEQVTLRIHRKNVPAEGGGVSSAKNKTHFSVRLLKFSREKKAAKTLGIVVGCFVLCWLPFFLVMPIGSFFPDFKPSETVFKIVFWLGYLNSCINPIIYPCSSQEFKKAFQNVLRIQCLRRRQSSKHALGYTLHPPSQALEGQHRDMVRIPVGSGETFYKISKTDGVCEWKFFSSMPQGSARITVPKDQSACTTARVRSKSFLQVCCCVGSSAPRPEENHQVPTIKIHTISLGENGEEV
# [10] = system: CHO; test: Selectivity index, ratio of pKi for human recombinant alpha1A adrenoceptor to pKi for human recombinant alpha1B adrenoceptor expressed in CHO cell membrane; type: cell-based
# [11] = species: Rattus norvegicus; test: Selectivity ratio of pA2 for alpha1D adrenoceptor in Wistar rat thoracic aorta to pKb for alpha1A adrenoceptor in Wistar rat vas deferans
# [12] = system: CHO; test: Selectivity index, ratio of pKi for human recombinant 5-HT1A receptor expressed in HeLa cell membrane to pKi for human recombinant alpha1D adrenoceptor expressed in CHO cell membrane; type: cell-based
# [13] = target: T6, 5-hydroxytryptamine receptor 1A (Homo sapiens, UniProt P08908); test: Displacement of [3H]8-OH-DPAT from human recombinant 5-HT1A receptor expressed in HeLa cell membrane after 30 mins by liquid scintillation counting; type: cell membranes
# T6 sequence (P08908 whole entry): T2 sequence (whole entry)
# [14] = target: T7, Alpha-1B adrenergic receptor (Homo sapiens, UniProt P35368); test: Displacement of [3H]prazosin from human recombinant alpha1B adrenoceptor expressed in CHO cell membrane after 30 mins by liquid scintillation counting; type: cell membranes
# T7 sequence (P35368 whole entry): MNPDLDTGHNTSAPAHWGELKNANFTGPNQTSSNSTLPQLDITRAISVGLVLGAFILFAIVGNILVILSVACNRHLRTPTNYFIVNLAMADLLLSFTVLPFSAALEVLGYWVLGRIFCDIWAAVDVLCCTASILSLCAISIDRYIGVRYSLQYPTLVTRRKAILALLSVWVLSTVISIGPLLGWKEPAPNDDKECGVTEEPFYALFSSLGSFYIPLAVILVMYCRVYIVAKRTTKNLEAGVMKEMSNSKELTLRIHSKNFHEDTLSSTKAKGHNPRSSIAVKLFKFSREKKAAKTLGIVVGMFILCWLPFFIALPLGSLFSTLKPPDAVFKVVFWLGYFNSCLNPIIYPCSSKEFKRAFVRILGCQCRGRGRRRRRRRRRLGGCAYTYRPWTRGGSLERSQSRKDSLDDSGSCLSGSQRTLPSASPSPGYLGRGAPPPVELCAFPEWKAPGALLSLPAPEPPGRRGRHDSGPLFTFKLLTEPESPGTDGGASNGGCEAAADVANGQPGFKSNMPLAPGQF
# [15] = target: T8, Alpha-1A adrenergic receptor (Homo sapiens, UniProt P35348); test: Displacement of [3H]prazosin from human recombinant alpha1A adrenoceptor expressed in CHO cell membrane after 30 mins by liquid scintillation counting; type: cell membranes
# T8 sequence (P35348 whole entry): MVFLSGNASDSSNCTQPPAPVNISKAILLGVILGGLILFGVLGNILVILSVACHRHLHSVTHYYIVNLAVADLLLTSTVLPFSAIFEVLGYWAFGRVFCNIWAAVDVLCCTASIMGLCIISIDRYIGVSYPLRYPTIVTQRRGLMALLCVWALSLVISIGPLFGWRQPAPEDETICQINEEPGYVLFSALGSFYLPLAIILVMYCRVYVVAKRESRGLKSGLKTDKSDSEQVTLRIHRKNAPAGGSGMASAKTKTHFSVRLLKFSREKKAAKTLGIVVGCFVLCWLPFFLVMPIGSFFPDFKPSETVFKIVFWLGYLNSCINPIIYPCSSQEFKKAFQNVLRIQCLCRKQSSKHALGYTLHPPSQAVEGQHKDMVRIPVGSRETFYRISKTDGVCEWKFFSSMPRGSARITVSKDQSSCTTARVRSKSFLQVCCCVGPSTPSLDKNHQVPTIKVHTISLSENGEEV
pKb [1],pD2 [2],Ratio [4],Ratio [6],Ki [7] [µM],Kb [8] [µM],pKb [9],Ratio [11],Ki [13] [µM],Emax [2] [%],Ki [14] [µM],Ki [15] [µM],Structure (SMILES),Ratio pKi [3],Ratio pKi [5],Ratio pKi [10],Ratio pKi [12]
5.86,8.8,219,0.5,0.0117,0.00631,6.16,110,–,–,–,–,c1ccc(OCCNCC2COC(c3ccccc3)(c3ccccc3)O2)cc1 (racemic),3,5,2,3
6.14,6.85,30,1,0.0145,0.0245,6.2,26,0.0038,50,0.115,0.126,c1ccc(OCCNC[C@H]2COC(c3ccccc3)(c3ccccc3)O2)cc1,9,8,1,4
6.51,7.45,34,1,0.0229,0.00513,6.67,23,0.00302,65.3,0.0794,0.0302,c1ccc(OCCNC[C@@H]2COC(c3ccccc3)(c3ccccc3)O2)cc1,1,3,3,8
